{
  "source": "patent US5545639A",
  "about": "“Method of inhibiting transformed cells” (The United States of America as represented by the …, priority 1994, dated 1996)",
  "key": {"DMS 273": {"tested_on": "DMS 273", "test": "Dose response of growth, tumor cell line", "format": "cell-based", "settings": "Homo sapiens; DMS 273, small cell lung cancer; read-out: 50% Loss (50% kill)"}, "DMS 114": {"tested_on": "DMS 114", "test": "Dose response of growth, tumor cell line", "format": "cell-based", "settings": "Homo sapiens; DMS 114, small cell lung cancer; read-out: 50% Loss (50% kill)", "protocol": "Indeed, 70% of the cell lines were shown not only to experience precluded growth, but cell death, when exposed to less then 100 μM of the active ingredient."}},
  "data": [
    {"molecule": "ClCc1ccc2ccc3ccc(CCl)nc3c2n1", "note": "[2,9-bis(chloromethyl)-1,10-phenanthroline]", "values": [
      {"measurement": "CC50", "setting": "DMS 273", "result": "> 100", "unit": "µM"},
      {"measurement": "CC50", "setting": "DMS 114", "result": 7.72, "unit": "µM"}
    ]}
  ]
}
